Source: patent US11021444B2, “Antiviral compounds” (priority 2013, dated 2021)
Like-named read-outs stand apart in the source and are kept apart here.

What was measured:
recombinant RSV complex = recombinant RSV complex (Human respiratory syncytial virus A, UniProt P28887); experiment: RSV Polymerase Inhibition Assay; format: biochemical
Procedure, shortened: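 Inhibition measured as reduced incorporation of radiolabel into RNA products, detected by scintillation counting. Reactions: recombinant RSV complex (10 nM), RNA oligonucleotides, Tris-HCl pH 7.5, 6 mM MgCl2, inhibitor titration, 2 h at 30 °C, EDTA stop.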

[1] = test system: Respiratory Syncytial Virus (RSV) long strain; experiment: microbe, parasite or virus in culture; format: cell-based; conditions: human respiratory syncytial virus, Tables A and B list compounds by EC50 band
Procedure, shortened: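 CPE-reduction format: viability measured colorimetrically with CCK-8 (450 nm, 630 nm reference) after 3-4 h, following 5-day infection at 37 °C, 5% CO2. Cells were HEp-2; inoculum 100 TCID50/well; duplicate 9-point 1/3 series starting at 100 μM or 1 μM.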

[2] = Cytotoxicity Determination (CCK-8, without addition of virus); format: cell-based; conditions: human, 50% cytotoxicity concentration (CC50)
Procedure, shortened: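 Cytotoxicity was measured by CCK-8 after 3-4 hours at 37 °C, following 5 days of uninfected exposure at 37 °C and 5% CO2. Compounds ran as duplicate 7-point 1/2 dilutions starting at 100 μM, with 1% final DMSO. HEp-2 cells had been plated at 1,500/well the day before.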

[3] = HEp-2, 120 h, read-out: 50% effective concentration (EC50), HEp-2 cells infected with RSV long strain, 5 days, CCK-8 readout

Chain of recombinant RSV complex (P28887 whole entry): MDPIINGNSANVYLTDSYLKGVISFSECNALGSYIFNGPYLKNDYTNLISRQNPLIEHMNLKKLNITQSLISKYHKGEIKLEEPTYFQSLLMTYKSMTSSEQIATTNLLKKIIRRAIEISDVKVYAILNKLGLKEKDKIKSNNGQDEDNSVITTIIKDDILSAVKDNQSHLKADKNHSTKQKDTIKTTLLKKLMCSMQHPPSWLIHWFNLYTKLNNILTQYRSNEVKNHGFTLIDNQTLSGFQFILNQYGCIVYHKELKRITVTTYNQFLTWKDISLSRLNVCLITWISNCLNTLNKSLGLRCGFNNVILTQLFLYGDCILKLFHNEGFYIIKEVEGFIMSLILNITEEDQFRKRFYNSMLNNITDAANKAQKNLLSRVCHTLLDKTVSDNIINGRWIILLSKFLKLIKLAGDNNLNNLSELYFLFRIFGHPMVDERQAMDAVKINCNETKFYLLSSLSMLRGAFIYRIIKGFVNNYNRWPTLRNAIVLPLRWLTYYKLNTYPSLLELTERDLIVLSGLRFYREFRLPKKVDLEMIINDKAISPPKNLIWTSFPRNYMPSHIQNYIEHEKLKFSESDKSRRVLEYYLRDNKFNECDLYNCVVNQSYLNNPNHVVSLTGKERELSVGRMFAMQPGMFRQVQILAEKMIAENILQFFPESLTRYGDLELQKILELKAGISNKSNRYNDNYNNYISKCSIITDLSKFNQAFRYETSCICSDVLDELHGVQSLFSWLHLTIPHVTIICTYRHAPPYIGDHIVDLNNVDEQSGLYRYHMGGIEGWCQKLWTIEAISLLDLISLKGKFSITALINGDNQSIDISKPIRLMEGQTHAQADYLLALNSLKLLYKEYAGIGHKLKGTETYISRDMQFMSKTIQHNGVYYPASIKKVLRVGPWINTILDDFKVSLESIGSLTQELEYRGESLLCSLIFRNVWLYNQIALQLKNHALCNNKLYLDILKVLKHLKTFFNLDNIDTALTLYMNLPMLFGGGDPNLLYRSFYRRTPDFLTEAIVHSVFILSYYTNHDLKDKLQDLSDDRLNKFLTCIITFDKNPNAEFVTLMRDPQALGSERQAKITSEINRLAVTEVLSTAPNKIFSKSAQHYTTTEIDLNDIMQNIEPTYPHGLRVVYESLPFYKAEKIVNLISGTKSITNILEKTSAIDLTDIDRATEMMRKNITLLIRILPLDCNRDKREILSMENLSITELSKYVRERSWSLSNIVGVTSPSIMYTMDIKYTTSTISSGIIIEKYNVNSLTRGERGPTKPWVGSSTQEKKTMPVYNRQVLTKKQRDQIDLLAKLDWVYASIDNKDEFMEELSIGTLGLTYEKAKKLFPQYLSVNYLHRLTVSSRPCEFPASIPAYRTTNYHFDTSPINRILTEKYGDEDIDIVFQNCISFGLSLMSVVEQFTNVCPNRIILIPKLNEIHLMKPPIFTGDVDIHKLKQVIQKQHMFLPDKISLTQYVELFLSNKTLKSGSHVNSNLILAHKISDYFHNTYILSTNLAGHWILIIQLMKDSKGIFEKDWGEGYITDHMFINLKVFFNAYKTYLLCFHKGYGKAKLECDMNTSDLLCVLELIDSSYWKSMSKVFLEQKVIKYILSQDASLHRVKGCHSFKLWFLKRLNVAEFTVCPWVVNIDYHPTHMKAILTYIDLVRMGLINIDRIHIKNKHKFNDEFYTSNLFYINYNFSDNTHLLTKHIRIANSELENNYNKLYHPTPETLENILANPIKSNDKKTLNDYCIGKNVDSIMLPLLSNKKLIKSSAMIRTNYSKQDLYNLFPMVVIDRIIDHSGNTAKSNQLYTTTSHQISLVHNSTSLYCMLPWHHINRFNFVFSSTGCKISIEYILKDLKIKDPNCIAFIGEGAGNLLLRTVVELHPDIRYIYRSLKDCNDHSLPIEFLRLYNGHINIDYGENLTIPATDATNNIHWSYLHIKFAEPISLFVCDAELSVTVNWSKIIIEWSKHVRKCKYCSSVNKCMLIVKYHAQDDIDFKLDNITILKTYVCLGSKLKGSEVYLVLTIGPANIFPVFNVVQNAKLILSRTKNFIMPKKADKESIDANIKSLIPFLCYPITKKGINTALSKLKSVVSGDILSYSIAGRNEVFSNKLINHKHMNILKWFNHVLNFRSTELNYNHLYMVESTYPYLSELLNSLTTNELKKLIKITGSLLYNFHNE
Chain of recombinant RSV complex (P03421 whole entry, further chain): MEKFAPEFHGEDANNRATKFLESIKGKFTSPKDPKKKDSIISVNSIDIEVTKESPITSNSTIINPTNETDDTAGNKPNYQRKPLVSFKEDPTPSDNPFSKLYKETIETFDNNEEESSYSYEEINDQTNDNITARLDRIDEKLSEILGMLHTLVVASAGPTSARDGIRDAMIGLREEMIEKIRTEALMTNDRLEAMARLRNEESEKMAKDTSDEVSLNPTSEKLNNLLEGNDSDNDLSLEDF

Compound | IC50 (recombinant RSV complex) | EC50 [1, 3] | CC50 at 5 days [2] | EC50 ([1]; 120 h, read-out: 50% effective concentration (EC50), HEp-2 cells infected with RSV long strain, 5 days, CCK-8 readout)
COc1cc(C(=O)NCC(C)(C)c2ccc(OC)c(-c3ccc(F)c(Cl)c3)n2)ccc1OCCO [Compound 368] | < 100000 nM | < 1000 nM | 10 to 100 µM | 
COc1cc(C(=O)NCC(O)(c2ccc(OC)c(-c3ccc(F)c(Cl)c3)n2)C2CC2)ccc1CCCO (stereo not drawn) [Compound 426] | < 10000 nM | < 1000 nM | 10 to 100 µM | 
COc1cc(C(=O)NCC(O)(c2ccc(OC)c(-c3ccc(F)c(Cl)c3)n2)C2CC2)ccc1OC(F)F (stereo not drawn) [Compound 432] | < 1000 nM | 1000 to 50000 nM | 10 to 100 µM | 
COc1cc(C(=O)NCC(F)(CF)c2ccc(OC)c(-c3ccc(F)c(Cl)c3)n2)ccc1OCCO (stereo not drawn) [Compound 435] | < 1000 nM | < 1000 nM | 10 to 100 µM | 
CCc1cc(-c2ccc(F)c(Cl)c2)nc(C(C)(O)CNC(=O)c2ccc(OCC(F)F)c(OC)c2)c1 (stereo not drawn) [Compound 440] | < 1000 nM |  | 10 to 100 µM | 1000 to 50000 nM
CNc1ccc(C(O)(CNC(=O)c2ccc(OC3CC3)c(OC)c2)C(F)(F)F)nc1-c1ccc(F)c(Cl)c1 (stereo not drawn) [Compound 451] | < 1000 nM | < 1000 nM | > 100 µM | 
COc1cc(C(=O)NCC(O)(c2ccc(OC)c(-c3ccc(F)c(Cl)c3)n2)C2CNC2)ccc1OC1CC1 (stereo not drawn) [Compound 463] | < 1000 nM | 1000 to 50000 nM | 10 to 100 µM | 
COc1cc(C(=O)NCC(O)(c2cc(C(N)=O)cc(-c3ccc(F)c(Cl)c3)n2)C(F)(F)F)ccc1OC1CC1 (stereo not drawn) [Compound 464] | < 1000 nM | < 1000 nM | 10 to 100 µM | 
COc1cc(C(=O)NCC(O)(c2cc(CO)cc(-c3ccc(F)c(Cl)c3)n2)C(F)(F)F)ccc1OC1CC1 (stereo not drawn) [Compound 465] | < 1000 nM | < 1000 nM | 10 to 100 µM | 
COc1cc(C(=O)NCC(O)(CO)c2ccc(OC)c(-c3ccc(F)c(Cl)c3)n2)ccc1OC1CC1(F)F (stereo not drawn) [Compound 469] | < 1000 nM | < 1000 nM | 10 to 100 µM | 
COc1cc(C(=O)NCC(C)(CO)c2ccc(OC)c(-c3ccc(F)c(Cl)c3)n2)ccc1OCCO (stereo not drawn) [Compound 471] | < 10000 nM | 1000 to 50000 nM | 10 to 100 µM | 
COc1cc(C(=O)NCC(=O)c2cc3c(c(-c4ccc(F)c(Cl)c4)n2)OCC3(C)O)ccc1OC1CC1 (stereo not drawn) [Compound 473] | < 1000 nM | < 1000 nM | 10 to 100 µM | 
COc1cc(C(=O)NCC(=O)c2cc3c(C)coc3c(-c3ccc(F)c(Cl)c3)n2)ccc1OC1CC1 [Compound 474] | < 1000 nM | < 1000 nM | > 100 µM | 
COc1cc(C(=O)NCC(C)(O)c2cc3c(c(-c4ccc(F)c(Cl)c4)n2)OCC3(C)O)ccc1OC1CC1 (stereo not drawn) [Compound 475] | < 1000 nM | < 1000 nM | 10 to 100 µM | 
CC1(N)COc2c1cc(C(O)(CNC(=O)c1ccc(OCCO)c(F)c1)C(F)(F)F)nc2-c1ccc(F)cc1 (stereo not drawn) [Compound 476] | < 1000 nM | < 1000 nM | 10 to 100 µM | 
CC(C)(N)c1cc(-c2ccc(F)c(Cl)c2)nc(C(O)(CNC(=O)c2cn3cccnc3n2)C(F)(F)F)c1 (stereo not drawn) [Compound 477] | < 10000 nM | 1000 to 50000 nM | 10 to 100 µM | 
COc1cc(C(=O)NCC(O)(c2ccc(OCCN)c(-c3ccc(F)cc3)n2)C(F)(F)F)ccc1OC1CC1 (stereo not drawn) [Compound 479] | < 1000 nM | < 1000 nM | 10 to 100 µM | 
COc1cc(C(=O)NCC(O)(c2cc3c(c(-c4ccc(F)c(Cl)c4)n2)OCC3(C)N[S+]([O-])C(C)(C)C)C(F)(F)F)ccc1OC1CC1 (stereo not drawn) [Compound 482] | < 1000 nM | < 1000 nM | 10 to 100 µM | 
COc1cc(C(=O)NCC(O)(c2cc(C(C)(N)CO)cc(-c3ccc(F)cc3)n2)C(F)(F)F)ccc1OCCO (stereo not drawn) [Compound 484] | < 10000 nM | 1000 to 50000 nM | > 100 µM | 
COc1cc(C(=O)NCC(O)(c2cc3c(c(-c4ccc(F)nc4)n2)OCC3(C)N)C(F)(F)F)ccc1OCCO (stereo not drawn) [Compound 492] | < 10000 nM | 1000 to 50000 nM | > 100 µM | 
COc1cc(C(=O)NC[C@@](O)(c2cc(C(C)(C)N)cc(-c3ccc(F)cc3)n2)C(F)(F)F)ccc1OC1CC1 [Compound 495] | < 1000 nM | < 1000 nM | 10 to 100 µM | 
COc1cc(C(=O)NCC(N)(c2ccc(OC)c(-c3ccc(F)c(Cl)c3)n2)C(F)F)ccc1OC1CC1 (stereo not drawn) [Compound 517] | < 1000 nM | < 1000 nM | 10 to 100 µM | 
